“Also recorded” adds a separate entry of the source.
Tests used:
CD2–CD58 interaction [1] = assay: Proximity ligation assay (PLA), Jurkat T cells / HFLS-RA cells co-culture; format: cell-based, human; conditions: for PPI inhibition by BODIPY conjugate (red fluorescence): BODIPY conjugate of SFTI-a, concentration not printed, compared to control without any peptide; for reduction in number of red dots: compared with control, p < 0.001; for PPI inhibition, number of red dots (ImageJ): vs untreated wells, p < 0.0001 (SAS, GLM)
Description: (§1) • Both T cells and HFLS-RA cells were grown to 70% confluency. • Approximately 20,000 Jurkat cells were added to each well, and the chamber slides were incubated for 30 min at 37°C with 5% CO2. • Approximately 10,000 HFLS-RA cells were treated with different concentrations of SFTI-a peptide separately for 2 h at 4°C and added over Jurkat cells that were previously coated onto the well chamber slides. • The slides were incubated for 48 h at 37°C with 5% CO2.
• The medium was gently removed from the corners of the wells. • Enough chilled methanol to cover the surface was added to each well for fixing the cells. • After incubating the slides for 15 min at −20°C, the methanol was removed, and PBS was used to hydrate the slides. • The slides were washed once more with PBS. • Two drops of blocking solution was added to each well, and they were incubated for 90 min at room temperature in a moist chamber.
• The blocking solution was removed, and the slides were washed gently with PBS. • The CD58 and CD2 (Santa Cruz Biotechnology) primary antibodies were used at a dilution of […] by diluting with antibody diluent solution provided in kit (2 μl [CD58 Ab] + 2 μl [CD2 Ab] + 196 μl antibody diluent solution per well). • After addition of primary antibody solution, the slides were incubated overnight at 4°C in a moist chamber with gentle shaking.
• The primary antibody solution was removed, and each well was washed very gently with 100 μl of PBS. • The probe solution was prepared using 1:1:4 ratio of positive probe:negative probe:antibody diluent solution, respectively. • After removing PBS, approximately 80 μl of probe solution was added to each well, which were incubated at 37°C for 1 h in a moist chamber.
• The probe solution was discarded, and all wells were washed twice with 100 μl of wash buffer A. • Ligase solution was prepared by mixing together 16 μl of ligation solution + 2 μl of ligase + 62 μl of high purified water. • 80 μl of this freshly prepared ligase solution was added gently to each well, which were incubated at 37°C for 30 min in a moist chamber.
• All procedures from this step forward were carried out in a dark (light-protected) environment. • After removing the ligase solution, the wells were washed gently twice with wash buffer A. • Amplification/polymerase solution was prepared by mixing together 1 μl polymerase + 16 μl amplification (red) solution + 63 μl purified water. • 80 μl of the above solution was added to each well in the dark, and the plates were incubated in a 37°C moist chamber in the dark for 100 min.
• Amplification/polymerase solution was removed from each well, and they were washed gently twice with 120 μl of wash buffer B. • 0.01x wash buffer B (in phosphate-buffered saline [PBS]) was prepared, and each well was washed with this solution. • The well on slides were removed (wells are removed after all the washing step to prepare the slide for microscopic imaging). • Keeping the slide surface slightly wet with 0.01x wash buffer B, a small amount of mounting medium with DAPI solution was added to the slide. • Coverslips were placed over the slides, and images were obtained by using an Olympus Fluoview 1.0 confocal microscope with DAPI and Texas Red filters.
Wash buffers A and B were provided in the kit. The composition of the buffers is not disclosed by the vendor. A bio-protocol by Lin et al. provides the composition of Duolink in situ buffers A and B. The incubation time of 48 h was established by carrying out PLA at 24- and 48-h times.
Control experiments were conducted with HFLS-RA cells and T cells without addition of primary antibodies to CD2 and CD58 but with addition of secondary antibodies and PLA probes. Experiments were performed as described in steps 1–7 above.
Experiments with HFLS-RA cells and T cells were carried out as described above by adding primary and secondary antibodies only to CD58 and with PLA probes. […]

[2] = test system: CD58 on the cell surface of HFLS-RA cells; assay: Binding of SFTI-a BODIPY conjugate to HFLS-RA cells (fluorescence microscopy); format: cell-based, human; conditions: green fluorescence of BODIPY, Mg+ green filter (excitation 507, emission 531), 60x, concentration not given
Description: Synthesis of cyclic peptide SFTI-a, Cyclo(CKASAPPSCYDGDD), was carried out in three major steps: 1) Linear sequence synthesis with an automatic peptide synthesizer (Protein Technologies, Inc., AZ, USA); 2) head-to-tail cyclization; and 3) disulfide bond formation. For fluorescent labeling of peptide SFTI-a, Lys in the peptide sequence was replaced with Lys containing an azide side chain. The azide side chain was used to conjugate fluorescent label 4,4-difluoro-4-bora-3a,4a-diaza-s-indacene (BODIPY), resulting in the conjugate Cyclo(CK-(BODIPY)-ASAPPSCYDGDD). The detailed procedure for synthesis of the peptide is described in our previous work. Peptides SFTI-a and SFTI-a with lysine azide (N3) and fluorescence-labeled SFTI-a were purified by preparative HPLC (Waters Corp., MA, USA) using acetonitrile and water containing 0.1% TFA. Molecular weights of the synthesized peptide and the conjugate were confirmed by mass spectrometry. BODIPY was obtained from Dr Vicente, Department of Chemistry, Louisiana State University, LA, USA.
as §1
The microscopic visualization was carried out on an Olympus Fluoview FV10i confocal microscope. DAPI (excitation 359, emission 461) and Texas Red (excitation 595, emission 612) filters were used for detection purposes at 60x zoom. For SFTI-a BODIPY conjugate, a Mg+ green (excitation 507, emission 531) filter was used. Different images were taken from each well containing different concentrations of SFTI-a and cells only. All images were taken in a single plane and at 60x magnification.

CD58 protein = conditions: cited from earlier work
From the text: (§2) In almost all physiological processes, the medium for communication between two cells is facilitated by the interaction of proteins. The up- or down-regulation of proteins and the deregulated interaction of these proteins usually lead to disease conditions. Rational drug designs targeting these protein–protein interactions (PPI) have gained much popularity in the past decade. […] Many proteins interact at the cell surface to send signals inside the cell from the extracellular region, and PPI on the cell surface are targ ...

CD2–CD58 interaction [3] = conditions: cited from earlier work
From the text: as §2

[4] = test system: cell adhesion in the immune response; conditions: cell-based in vitro and ex vivo assays; cited from earlier work
From the text: as §2

CD58 adhesion domain = conditions: relatively weak but highly specific interaction; background statement, reference printed only at the preceding sentence; read-out: Kd of CD2–CD58 interaction; cited from earlier work
From the text: as §2

[5] = listed as BODIPY conjugate of SFTI-a

**Q.** With “Cyclo(CK-(BODIPY)-ASAPPSCYDGDD) (bicyclic or more) [SFTI-a conjugate, fluorescently labeled peptide with BODIPY attachment via azide side chain of Lys]” as the molecule, how does the “PPI inhibition by BODIPY conjugate (red fluorescence)” value (CD2–CD58 interaction [1]) read?
**A.** The value was “inhibit the interaction between Jurkat cells and HFLS-RA cells”.

**Q.** What about the “PPI inhibition by BODIPY conjugate (red fluorescence)” value (CD2–CD58 interaction [1]; [5]) of the same molecule?
**A.** Its value is “able to inhibit PPI as shown by a decrease in red fluorescence compared to control”.

**Q.** And the “binding to CD58 on HFLS-RA cell surface” value [2]?
**A.** The value was “bound to the cell surface of HFLS-RA cells as shown by green fluorescence of BODIPY”.

**Q.** What about the “binding to CD58 on HFLS-RA cell surface” value [2, 5] of the same molecule?
**A.** The value was “green fluorescence on HFLS-RA cells due to binding of a conjugate of SFTI-a to CD58 on cells”.

**Q.** For “Cyclo(CKASAPPSCYDGDD) (bicyclic or more) [SFTI-a]”, which “reduction in number of red dots” value (CD2–CD58 interaction [1]; 50 nM SFTI-a) is on record?
**A.** Its value is “significant reduction in a number of red dots”.

**Q.** What about the “reduction in number of red dots” value (CD2–CD58 interaction [1]; 250 nM SFTI-a) of the same molecule?
**A.** The value was “significant reduction in a number of red dots”.

**Q.** And the “PPI inhibition, number of red dots (ImageJ)” value (“PPI inhibition, number” below) (CD2–CD58 interaction [1]; 10 μM SFTI-a)?
**A.** The value was “significant in comparison with that of untreated wells”.

**Q.** And the “PPI inhibition, number” value (CD2–CD58 interaction [1]; 50 μM SFTI-a)?
**A.** Its value is “significant in comparison with that of untreated wells”.

**Q.** What about the “decrease in red dots (CD2–CD58 PPI inhibition)” value (CD2–CD58 interaction [1]; 100 μM SFTI-a, HFLS-RA cells treated 2 h at 4°C, added over Jurkat cells, 48 h at 37°C, confocal microscopy 60x, vs cells without peptide) of the same molecule?
**A.** The value was “significant decrease in red dots; also recorded: decrease in the number of red dots”.

**Q.** What about the “PPI inhibition, number” value (CD2–CD58 interaction [1]; 100 μM SFTI-a) of the same molecule?
**A.** Its value is “significant in comparison with that of untreated wells”.

**Q.** And the “PPI inhibition at different concentrations (dose dependence)” value (CD2–CD58 interaction [1]; different concentrations of SFTI-a (50 nM, 250 nM, 1 μM, 10 μM, 50 μM, 100 μM), HFLS-RA cells treated 2 h at 4°C, co-culture with Jurkat cells 48 h at 37°C, red dots)?
**A.** The value was “significant decrease in bright red spots; also recorded: dose-dependent inhibition of the interaction between CD2 and CD58 proteins”.

**Q.** And the “binding to CD58 on HFLS-RA cell surface” value [2]?
**A.** The value was “bind to CD58 on the cell surface”.

**Q.** What about the “binding to CD58” value (CD58 protein) of the same molecule?
**A.** Its value is “binds to the CD58 protein”.

**Q.** What about the “inhibition of CD2–CD58 interaction” value (CD2–CD58 interaction [3]) of the same molecule?
**A.** The value was “inhibits CD2–CD58 interaction”.

**Q.** What about the “inhibition of cell adhesion in the immune response, suppression of T-cell immune response” value [4] of the same molecule?
**A.** The value was “potent compound for inhibiting cell adhesion in the immune response”.

B1: CD2: T-cell surface adhesion protein, binding partner of CD58 (protein)
chain: KEITNALETWGALGQDINLDIPSFQMSDDIDDIKWEKTSDKKKIAQFRKEKETFKEKDTYKLFKNGTLKIKHLKTDDQDIYKVSIYDTKGKNVLEKIFDLKIQERVSKPKISWTCINTTLTCEVMNGTDPELNLYQDGKHLKLSQRVITHKWTTSLSAKFKCTAGNKVSKESSVEPVSCPEKGLDIYLIIGICGGGSLLMVFVALLVFYITKRKKQRSRRNDEELETRAHRVATEERGRKPHQIPASTPQNPATSQHPPPPPGHRSQAPSHRPPPPGHRVQHQPQKRPPAPSGTQVHQQKGPPLPRPRVQPKPPHGAAENSLSPSSN
**Q.** Which Kd (CD58 adhesion domain) does the source give for B1 here?
**A.** Its Kd is 1 to 10 µM.

From PMC6770473, “Proximity ligation assay to study protein–protein interactions of proteins on two different cells” (Biotechniques, 2018)
